Reference: patent publication US20220370440A1 (Lead Discovery Center GmbH, priority 2018, published 2022)

Tests used:
EGFR T790ML858R = EGFR T790ML858R (Homo sapiens, UniProt P00533, L858R/T790M); experiment: EGFR T790ML858R Lance assay; format: biochemical
Experimental: (§1) Inhibition is indicated as […] [nM] (“−”=not measured). Compounds having an activity designated as “A” provided an IC50≤100 nM; compounds having an activity designated as “B” provided an 100 nM<IC50≤500 nM; compounds having an activity designated as “C” provided an 500 nM<IC50≤1000 nM; compounds having an activity designated as “D” provided an 1000 nM<IC50≤100000 nM; and compounds having an activity designated as “E” provided an IC50>10000 nM.

HER2 INS YVMA = target: T1, HER2 INS YVMA (Homo sapiens, UniProt P04626, INS775YVMA); experiment: Lance Kinase Activity Assay, HER2 INS YVMA (Her2 Exon 20 INSYVMA Lance); format: biochemical; settings: biochemical Lance assay
T1 construct: purchased DPF
In short: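 IC50 was fitted to sigmoidal curves of TR-FRET signal (665 and 615 nm emission after 340 nm excitation) from an Eu anti-phospho antibody binding the phosphorylated ULight peptide. The ATP-started reaction ran 1 h at RT and was then quenched with 10 mM EDTA plus antibody for a further 1 h. Compounds were tested as 8-point, 3-fold dilutions.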

[1] = target: EGFR Exon 20 INSNPH Ba/F3 (Homo sapiens, UniProt P00533, DUP771-773, cells depend on it); experiment: EGFR Exon 20 INSNPH Ba/F3 CellTiter-Glo; format: cell-based; settings: CellTiter-Glo, 72 h, read-out: EGFR Exon 20 INSNPH Ba/F3 CTG IC50
In short: (§2)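 IC50 values come from dose–response fits of CellTiter-Glo luminescence in Ba/F3 cells treated with compound for 72 h at 37 °C, 5% CO2. Vehicle (DMSO) and 10 μM staurosporine wells set the assay window, with Z′ ≥0.5 required.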

EGFR wt = EGFR wt (Homo sapiens, UniProt P00533); experiment: EGFR wt Lance assay; format: biochemical
Experimental: as §1

[2] = Metabolic stability in mouse liver microsomes without cofactor NADPH; format: in vitro ADME; settings: 3 μM test compound, mouse liver microsomes, without NADPH, 50 min, 37° C., LC-MS/MS
Source text: There are two major groups of enzyme reactions catalyzed by drug metabolizing enzymes, the so called Phase I and Phase II reactions. The basic processes in phase I reactions are oxidation, reduction and/or hydrolysis mostly catalyzed by the cytochrome P450 (CYP) family of enzymes.
The following procedures describe the determination of the in vitro Phase I metabolic stability of test compounds using liver microsomes by measuring compound depletion over time. Test compound at the concentration of 3 μM was incubated with the liver microsomes from the mouse species and the experiment was performed without NADPH. The depletion of the test compounds was measured over time up to 50 minutes at 37° C. by LC-MS/MS. Different compounds were tested under these conditions for microsomal stability (see Table 5).

H1975 = H1975 CellTiter-Glo; format: cell-based; settings: Homo sapiens, NCI-H1975; 72 h compound incubation; read-out: H1975 CTG IC50
In short: (§3)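 Seed cells; incubate 24 h at 37° C., 5% CO2; add compound in DMSO over a concentration range; incubate 72 h; add CellTiter-Glo reagent, stabilise 10 min at room temperature; read luminescence; fit IC50.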

A431 = A431 CellTiter-Glo; format: cell-based; settings: Homo sapiens, A-431; 72 h compound incubation; read-out: A431 CTG IC50
In short: as §3

[3] = target: Her2 Exon 20 INSYVMA Ba/F3 (Homo sapiens, UniProt P04626, DUP772-775, cells depend on it); experiment: Her2 Exon 20 INSYVMA Ba/F3 CellTiter-Glo; format: cell-based; settings: CellTiter-Glo, 72 h, read-out: Her2 Exon 20 INSYVMA Ba/F3 CTG IC50
In short: as §2

T1 sequence (P04626 with tags, fused parts or gaps INS775YVMA): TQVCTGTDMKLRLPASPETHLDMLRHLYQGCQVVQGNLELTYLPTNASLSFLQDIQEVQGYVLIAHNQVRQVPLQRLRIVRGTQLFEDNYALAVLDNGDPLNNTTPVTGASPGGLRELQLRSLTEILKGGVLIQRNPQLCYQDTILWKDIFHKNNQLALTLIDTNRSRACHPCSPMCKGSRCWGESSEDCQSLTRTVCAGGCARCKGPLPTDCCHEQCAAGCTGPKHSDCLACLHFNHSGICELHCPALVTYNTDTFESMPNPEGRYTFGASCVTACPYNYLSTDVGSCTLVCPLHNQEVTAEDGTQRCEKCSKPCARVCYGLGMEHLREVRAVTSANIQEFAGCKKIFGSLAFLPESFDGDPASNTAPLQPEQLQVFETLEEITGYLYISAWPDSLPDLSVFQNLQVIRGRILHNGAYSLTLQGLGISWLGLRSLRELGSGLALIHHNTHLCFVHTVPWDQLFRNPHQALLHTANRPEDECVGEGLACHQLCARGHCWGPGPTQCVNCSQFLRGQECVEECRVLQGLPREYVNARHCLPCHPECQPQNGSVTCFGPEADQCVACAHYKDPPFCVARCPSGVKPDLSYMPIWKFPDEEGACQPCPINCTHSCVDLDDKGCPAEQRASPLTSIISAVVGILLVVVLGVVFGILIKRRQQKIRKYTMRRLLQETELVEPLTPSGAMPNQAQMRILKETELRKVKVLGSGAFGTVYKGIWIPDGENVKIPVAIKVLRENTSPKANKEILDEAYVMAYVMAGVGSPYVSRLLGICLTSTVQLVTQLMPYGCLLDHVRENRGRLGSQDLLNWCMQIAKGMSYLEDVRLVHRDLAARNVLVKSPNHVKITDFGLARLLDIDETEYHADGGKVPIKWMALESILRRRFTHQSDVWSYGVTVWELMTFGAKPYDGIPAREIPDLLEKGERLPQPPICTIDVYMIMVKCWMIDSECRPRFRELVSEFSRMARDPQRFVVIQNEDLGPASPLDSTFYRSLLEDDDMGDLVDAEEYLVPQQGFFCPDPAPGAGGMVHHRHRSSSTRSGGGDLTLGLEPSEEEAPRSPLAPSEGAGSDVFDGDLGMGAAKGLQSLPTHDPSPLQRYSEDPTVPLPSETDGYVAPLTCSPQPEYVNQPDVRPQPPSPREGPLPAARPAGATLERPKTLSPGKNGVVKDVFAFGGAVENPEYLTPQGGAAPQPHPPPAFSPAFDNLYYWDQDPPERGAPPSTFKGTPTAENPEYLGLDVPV
Sequence of EGFR Exon 20 INSNPH Ba/F3 (P00533 with tags, fused parts or gaps DUP771-773): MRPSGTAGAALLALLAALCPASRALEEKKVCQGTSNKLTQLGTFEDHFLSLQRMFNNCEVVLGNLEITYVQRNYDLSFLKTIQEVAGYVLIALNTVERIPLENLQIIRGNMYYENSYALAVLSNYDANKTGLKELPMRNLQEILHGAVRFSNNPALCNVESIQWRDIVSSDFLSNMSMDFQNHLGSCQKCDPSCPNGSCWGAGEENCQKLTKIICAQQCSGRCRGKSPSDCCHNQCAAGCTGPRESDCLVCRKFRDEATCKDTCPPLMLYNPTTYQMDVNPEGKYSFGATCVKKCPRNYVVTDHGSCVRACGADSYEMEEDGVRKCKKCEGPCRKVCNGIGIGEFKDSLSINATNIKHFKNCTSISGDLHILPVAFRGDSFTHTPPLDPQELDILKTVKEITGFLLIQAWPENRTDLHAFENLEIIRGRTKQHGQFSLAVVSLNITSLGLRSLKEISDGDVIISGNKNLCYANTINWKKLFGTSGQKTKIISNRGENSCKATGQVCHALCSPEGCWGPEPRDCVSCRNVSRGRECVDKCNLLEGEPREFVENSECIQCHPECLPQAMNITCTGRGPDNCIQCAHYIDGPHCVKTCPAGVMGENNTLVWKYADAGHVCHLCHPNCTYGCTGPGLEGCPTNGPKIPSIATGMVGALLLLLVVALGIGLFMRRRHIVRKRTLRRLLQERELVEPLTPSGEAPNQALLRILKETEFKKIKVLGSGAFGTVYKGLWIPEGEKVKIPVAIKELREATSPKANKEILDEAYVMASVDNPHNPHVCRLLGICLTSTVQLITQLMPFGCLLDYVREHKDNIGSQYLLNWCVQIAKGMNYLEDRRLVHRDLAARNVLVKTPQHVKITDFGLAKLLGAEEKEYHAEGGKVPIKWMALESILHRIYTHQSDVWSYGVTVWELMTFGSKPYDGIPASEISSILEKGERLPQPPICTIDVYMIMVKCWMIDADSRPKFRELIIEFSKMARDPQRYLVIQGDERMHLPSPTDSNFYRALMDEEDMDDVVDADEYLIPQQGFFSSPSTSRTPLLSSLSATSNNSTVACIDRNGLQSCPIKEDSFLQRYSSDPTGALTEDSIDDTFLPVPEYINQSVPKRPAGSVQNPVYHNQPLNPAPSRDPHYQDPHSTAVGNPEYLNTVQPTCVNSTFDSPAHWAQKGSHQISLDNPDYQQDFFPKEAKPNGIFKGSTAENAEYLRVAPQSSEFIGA
Sequence of EGFR wt (P00533 25-1210): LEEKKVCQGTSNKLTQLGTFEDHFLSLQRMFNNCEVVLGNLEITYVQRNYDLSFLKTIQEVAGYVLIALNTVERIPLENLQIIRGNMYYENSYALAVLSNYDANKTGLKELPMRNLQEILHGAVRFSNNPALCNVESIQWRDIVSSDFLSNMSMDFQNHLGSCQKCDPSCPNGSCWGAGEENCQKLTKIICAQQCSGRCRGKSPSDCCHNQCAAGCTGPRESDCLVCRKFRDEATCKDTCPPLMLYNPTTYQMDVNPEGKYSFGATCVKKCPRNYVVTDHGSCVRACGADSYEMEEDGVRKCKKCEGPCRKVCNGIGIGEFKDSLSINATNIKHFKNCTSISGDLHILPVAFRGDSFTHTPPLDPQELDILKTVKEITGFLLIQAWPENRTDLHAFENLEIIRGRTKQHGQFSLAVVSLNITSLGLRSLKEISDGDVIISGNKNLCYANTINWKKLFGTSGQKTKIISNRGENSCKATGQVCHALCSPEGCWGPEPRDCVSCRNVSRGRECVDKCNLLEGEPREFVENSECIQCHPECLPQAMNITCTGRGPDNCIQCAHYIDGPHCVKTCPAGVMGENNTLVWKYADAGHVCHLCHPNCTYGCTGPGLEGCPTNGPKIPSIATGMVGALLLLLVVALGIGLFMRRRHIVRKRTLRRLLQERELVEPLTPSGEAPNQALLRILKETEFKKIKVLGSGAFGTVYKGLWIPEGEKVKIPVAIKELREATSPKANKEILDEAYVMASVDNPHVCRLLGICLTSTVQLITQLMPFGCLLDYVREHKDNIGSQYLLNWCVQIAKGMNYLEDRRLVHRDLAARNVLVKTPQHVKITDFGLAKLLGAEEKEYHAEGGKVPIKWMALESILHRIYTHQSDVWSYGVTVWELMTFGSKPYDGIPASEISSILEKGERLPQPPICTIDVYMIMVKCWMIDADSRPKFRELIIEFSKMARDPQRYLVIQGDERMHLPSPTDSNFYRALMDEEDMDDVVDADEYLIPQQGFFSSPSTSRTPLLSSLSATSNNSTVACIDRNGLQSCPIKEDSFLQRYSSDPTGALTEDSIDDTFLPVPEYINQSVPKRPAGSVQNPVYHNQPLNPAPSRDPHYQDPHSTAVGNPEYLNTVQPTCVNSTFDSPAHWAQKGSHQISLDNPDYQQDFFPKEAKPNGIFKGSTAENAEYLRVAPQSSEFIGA
Sequence of Her2 Exon 20 INSYVMA Ba/F3 (P04626 with tags, fused parts or gaps DUP772-775): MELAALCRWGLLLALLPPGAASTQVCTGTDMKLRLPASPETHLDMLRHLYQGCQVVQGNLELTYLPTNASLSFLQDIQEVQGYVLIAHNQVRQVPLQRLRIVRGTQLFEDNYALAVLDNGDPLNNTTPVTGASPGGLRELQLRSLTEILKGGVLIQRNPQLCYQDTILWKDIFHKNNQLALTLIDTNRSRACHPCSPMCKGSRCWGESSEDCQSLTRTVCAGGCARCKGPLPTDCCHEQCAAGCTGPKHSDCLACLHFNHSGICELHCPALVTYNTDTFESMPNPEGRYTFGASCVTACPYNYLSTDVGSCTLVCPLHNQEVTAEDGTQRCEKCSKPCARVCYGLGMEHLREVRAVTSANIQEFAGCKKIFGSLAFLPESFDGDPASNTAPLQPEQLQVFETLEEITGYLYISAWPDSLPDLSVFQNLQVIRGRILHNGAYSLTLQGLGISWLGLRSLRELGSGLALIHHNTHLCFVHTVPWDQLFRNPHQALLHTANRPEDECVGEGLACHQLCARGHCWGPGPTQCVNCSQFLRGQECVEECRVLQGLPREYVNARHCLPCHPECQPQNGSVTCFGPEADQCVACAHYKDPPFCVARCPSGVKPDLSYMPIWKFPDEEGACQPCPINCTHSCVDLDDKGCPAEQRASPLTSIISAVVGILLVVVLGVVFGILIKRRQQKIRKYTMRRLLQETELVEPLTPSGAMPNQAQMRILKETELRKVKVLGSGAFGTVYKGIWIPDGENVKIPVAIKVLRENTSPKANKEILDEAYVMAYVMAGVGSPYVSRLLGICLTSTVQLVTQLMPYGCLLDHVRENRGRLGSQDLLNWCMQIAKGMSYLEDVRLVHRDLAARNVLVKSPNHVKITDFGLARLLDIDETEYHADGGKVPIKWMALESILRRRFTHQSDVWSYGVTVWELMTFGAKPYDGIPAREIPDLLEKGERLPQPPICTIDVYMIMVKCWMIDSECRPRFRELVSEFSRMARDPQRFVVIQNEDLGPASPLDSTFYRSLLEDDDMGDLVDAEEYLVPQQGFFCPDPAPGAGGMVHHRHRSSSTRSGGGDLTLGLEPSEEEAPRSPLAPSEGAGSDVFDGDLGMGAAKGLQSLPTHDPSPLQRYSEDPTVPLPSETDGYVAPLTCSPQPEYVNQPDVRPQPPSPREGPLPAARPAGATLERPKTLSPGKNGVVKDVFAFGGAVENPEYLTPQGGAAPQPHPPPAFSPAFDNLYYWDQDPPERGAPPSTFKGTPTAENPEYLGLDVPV

SMILES | IC50 (EGFR T790ML858R) | IC50 (HER2 INS YVMA) | GI50 [1] | IC50 (EGFR wt) | Stability in presence of mouse liver microsomes without cofactor NADPH [% remaining after 50 min] [2] | IC50 (H1975) | IC50 (A431) | GI50 [3]
C=CC(=O)Nc1cc(-c2c(-c3ccc(OCCN(C)C)cc3)[nH]c3ncc(C(=O)OC(C)C)cc23)cc(F)c1C [Example 182, isopropyl 3-(3-acrylamido-5-fluoro-4-methylphenyl)-2-(4-(2-(dimethylamino)ethoxy)phenyl)-1H-pyrrolo[2,3-b]pyridine-5-carboxylate] | ≤ 100 nM | ≤ 100 nM | 100 to 500 nM | ≤ 100 nM | >99 % remaining after 50 min | 100 to 500 nM | 1000 to 100000 nM | 100 to 500 nM
C=CC(=O)Nc1cc(-c2c(-c3ccc(N4CCN(CC)CC4)cc3)[nH]c3nccc(Cl)c23)ccc1C [Example 40, N-(5-(4-chloro-2-(4-(4-ethylpiperazin-1-yl)phenyl)-1H-pyrrolo[2,3-b]pyridin-3-yl)-2-methylphenyl)acrylamide] | ≤ 100 nM | ≤ 100 nM | ≤ 100 nM | ≤ 100 nM | >99 % remaining after 50 min | ≤ 100 nM | 100 to 500 nM | ≤ 100 nM
C=CC(=O)N1CCCc2ccc(-c3c(-c4cccc(OCCN(C)C)c4)[nH]c4nccc(Cl)c34)cc21 [Example 88, 1-(7-(4-chloro-2-(3-(2-(dimethylamino)ethoxy)phenyl)-1H-pyrrolo[2,3-b]pyridin-3-yl)-3,4-dihydroquinolin-1(2H)-yl)prop-2-en-1-one] | ≤ 100 nM | ≤ 100 nM | 1000 to 10000 nM | ≤ 100 nM | >99 % remaining after 50 min | 100 to 500 nM | 1000 to 100000 nM | 1000 to 10000 nM
C=CC(=O)Nc1cc(-c2c(-c3ccc(N4CCN(C(C)C)CC4)cc3)[nH]c3ncc(C(=O)OC(C)C)cc23)ccc1C [Example 176, isopropyl 3-(3-acrylamido-4-methylphenyl)-2-(4-(4-isopropylpiperazin-1-yl)phenyl)-1H-pyrrolo[2,3-b]pyridine-5-carboxylate] | ≤ 100 nM | ≤ 100 nM | 100 to 500 nM | ≤ 100 nM | >99 % remaining after 50 min | 100 to 500 nM | 1000 to 100000 nM | 100 to 500 nM
C=CC(=O)Nc1cc(-c2c(-c3ccc(N4CCN(C)CC4)cc3)[nH]c3ncc(Cl)c(C)c23)ccc1C [Example 155] | ≤ 100 nM | ≤ 100 nM | 100 to 500 nM | ≤ 100 nM | >99 % remaining after 50 min | ≤ 100 nM | 1000 to 100000 nM | 500 to 1000 nM
C=CC(=O)Nc1cc(-c2c(-c3cccc(CN4CCOCC4)c3)[nH]c3ncccc23)ccc1C [Example 82, N-(2-methyl-5-(2-(3-(morpholinomethyl)phenyl)-1H-pyrrolo[2,3-b]pyridin-3-yl)phenyl)acrylamide] | ≤ 100 nM | 1000 to 10000 nM | 1000 to 10000 nM | 100 to 500 nM | 97 % remaining after 50 min | 500 to 1000 nM | 1000 to 100000 nM | 1000 to 10000 nM
C=CC(=O)Nc1cc(-c2c(-c3cnc(N4CCN(C)CC4)nc3)[nH]c3nccc(Cl)c23)ccc1C [Example 39, N-(5-(4-chloro-2-(2-(4-methylpiperazin-1-yl)pyrimidin-5-yl)-1H-pyrrolo[2,3-b]pyridin-3-yl)-2-methylphenyl)acrylamide] | ≤ 100 nM | 100 to 500 nM | 1000 to 10000 nM | ≤ 100 nM | >99 % remaining after 50 min | 100 to 500 nM | 1000 to 100000 nM | 500 to 1000 nM
C=CC(=O)Nc1cc(-c2c(-c3ccc(N4CCN(C)CC4)cc3)[nH]c3ncc(C(=O)NC(C)C)cc23)ccc1C [Example 119, 3-(3-acrylamido-4-methylphenyl)-N-isopropyl-2-(4-(4-methylpiperazin-1-yl)phenyl)-1H-pyrrolo[2,3-b]pyridine-5-carboxamide] | ≤ 100 nM | ≤ 100 nM | 100 to 500 nM | ≤ 100 nM | >99 % remaining after 50 min | 500 to 1000 nM | 500 to 1000 nM | 100 to 500 nM
C=CC(=O)Nc1cc(-c2c(-c3ccc(N4CCOCC4)nc3)[nH]c3nccc(Cl)c23)ccc1C [Example 30, N-(5-(4-chloro-2-(6-morpholinopyridin-3-yl)-1H-pyrrolo[2,3-b]pyridin-3-yl)-2-methylphenyl)acrylamide] | ≤ 100 nM | 100 to 500 nM | 500 to 1000 nM | ≤ 100 nM | >99 % remaining after 50 min | 100 to 500 nM |  | 1000 to 10000 nM
C=CC(=O)Nc1cc(-c2c(-c3ccc(NC(C)=O)cc3)[nH]c3nccc(Cl)c23)ccc1C [Example 14, N-(5-(2-(4-acetamidophenyl)-4-chloro-1H-pyrrolo[2,3-b]pyridin-3-yl)-2-methylphenyl)acrylamide] | ≤ 100 nM | 100 to 500 nM | 500 to 1000 nM | ≤ 100 nM | 68 % remaining after 50 min | 100 to 500 nM |  | 500 to 1000 nM
C=CC(=O)Nc1cc(-c2c(-c3ccnc(N4CCOCC4)c3)[nH]c3nccc(Cl)c23)ccc1C [Example 32, N-(5-(4-chloro-2-(2-morpholinopyridin-4-yl)-1H-pyrrolo[2,3-b]pyridin-3-yl)-2-methylphenyl)acrylamide] | ≤ 100 nM | 100 to 500 nM | 500 to 1000 nM | ≤ 100 nM | >99 % remaining after 50 min | ≤ 100 nM |  | 500 to 1000 nM
C=CC(=O)Nc1cc(-c2c(-c3ccc(C4CCNCC4)cc3)[nH]c3nccc(Cl)c23)ccc1C [Example 29, N-(5-(4-chloro-2-(4-(piperidin-4-yl)phenyl)-1H-pyrrolo[2,3-b]pyridin-3-yl)-2-methylphenyl)acrylamide] | ≤ 100 nM | ≤ 100 nM | 500 to 1000 nM | ≤ 100 nM | >99 % remaining after 50 min | ≤ 100 nM |  | 500 to 1000 nM
C=CC(=O)Nc1cc(-c2c(-c3cccc(N4CCOCC4)c3)[nH]c3nccc(Cl)c23)ccc1C [Example 6, N-(5-(4-chloro-2-(3-morpholinophenyl)-1H-pyrrolo[2,3-b]pyridin-3-yl)-2-methylphenyl)acrylamide] | ≤ 100 nM | 500 to 1000 nM | 500 to 1000 nM | ≤ 100 nM | >99 % remaining after 50 min | 100 to 500 nM |  | 500 to 1000 nM
C=CC(=O)Nc1cc(-c2c(-c3cccc(OCCCN(C)C)c3)[nH]c3nccc(Cl)c23)ccc1C [Example 20, N-(5-(4-chloro-2-(3-(3-(dimethylamino)propoxy)phenyl)-1H-pyrrolo[2,3-b]pyridin-3-yl)-2-methylphenyl)acrylamide] | ≤ 100 nM | ≤ 100 nM | 500 to 1000 nM | ≤ 100 nM | >99 % remaining after 50 min | ≤ 100 nM |  | 500 to 1000 nM
